From patent US11684607B2, “Secnidazole for use in the treatment of bacterial vaginosis” (priority 2014, dated 2023)
Read-outs that look alike come from different tables or passages of the source.

Assay: Effect of a single 2 g dose of SYM-1219 on the plasma pharmacokinetics of EE2 and NET in healthy female subjects
Assay type: in vivo, human
Experimental: Methods: Fifty-four (54) healthy female subjects, ages 18-65, received EE2/NET alone and in combination, where SYM-1219+EE2/NET were co-administered on Day 1 (Group B1; N=27) or SYM-1219 on Day 1 and EE2/NET on Day 2 (Group B2; N=27). Serial blood samples were drawn to measure plasma concentrations of EE2/NET. […] Safety was evaluated by recording of adverse events, vital signs, ECGs and standard laboratory tests.

[1] = EE2/NET administered 1 day after SYM-1219
[2] = Group B1: Period 2 (EE2/NET followed by SYM-1219 2 grams on Day 1) vs Period 1 (EE2/NET alone)
[3] = Group B1 Period 1: EE2/NET alone
[4] = Group B1 Period 2: EE2/NET followed by SYM-1219 2 grams on Day 1
[5] = Group B2: Period 2 (SYM-1219 2 grams on Day 1, EE2/NET on Day 2) vs Period 1 (EE2/NET alone)
[6] = Group B2: SYM-1219 2 g on Day 1, EE2/NET on Day 2
[7] = Group B2 Period 1: EE2/NET alone
[8] = Group B2 Period 2: SYM-1219 2 grams on Day 1, EE2/NET on Day 2

NET Cmax, AUC0-t or AUC0-∞ increase [1]: 9-16% | NET upper value of the 90% CI for Cmax [1]: 131% | NET AUC0-t, Geometric LSMean % Ratio (100 * Test/Reference) [2]: 115.52% | NET AUC0-∞, Geometric LSMean % Ratio (100 * Test/Reference) [2]: 116.27% | NET Cmax, Geometric LSMean % Ratio (100 * Test/Reference) [2]: 113.18% | NET Cmax and AUC increase (Group B1: SYM-1219 2 g and EE2/NET co-administered on Day 1): 13% | NET λz, Mean [3]: 0.07709 h⁻¹ | NET λz, Median [3]: 0.07966 h⁻¹ | NET λz, Mean [4]: 0.07886 h⁻¹ | NET λz, Median [4]: 0.07642 h⁻¹ | NET AUC0-t, Geometric LSMean % Ratio (100 * Test/Reference) [5]: 110.78% | NET AUC0-∞, Geometric LSMean % Ratio (100 * Test/Reference) [5]: 108.75% | NET Cmax, Geometric LSMean % Ratio (100 * Test/Reference) [5]: 116.46% | NET Cmax increase [6]: 16% | change in NET AUC [6]: no change | NET λz, Mean [7]: 0.07369 h⁻¹ | NET λz, Median [7]: 0.07458 h⁻¹ | NET Cmax, Mean [8]: 10.6 ng/mL | NET λz, Mean [8]: 0.07685 h⁻¹ | NET λz, Median [8]: 0.07539 h⁻¹ | NET Cmax, AUC0-t or AUC0-∞ increase (SYM-1219 administered immediately after EE2/NET): 13-16% | AUC(0-t) (female, human, plasma, Group B1 Period 1: EE2/NET alone, read-out: NET AUC0-t, Geometric LSMeans): 42.2 ng·h/mL | AUC(0-t) (female, human, plasma, Group B1 Period 1: EE2/NET alone, read-out: NET AUC0-t, Mean): 49.4 ng·h/mL | AUC(0-t) (female, human, plasma, Group B1 Period 1: EE2/NET alone, read-out: NET AUC0-t, Median): 38.7 ng·h/mL | AUC(0-inf) (female, human, plasma, Group B1 Period 1: EE2/NET alone, read-out: NET AUC0-∞, Geometric LSMeans): 48.5 ng·h/mL | AUC(0-inf) (female, human, plasma, Group B1 Period 1: EE2/NET alone, read-out: NET AUC0-∞, Mean): 57.8 ng·h/mL | AUC(0-inf) (female, human, plasma, Group B1 Period 1: EE2/NET alone, read-out: NET AUC0-∞, Median): 45.3 ng·h/mL | Cmax (female, human, plasma, Group B1 Period 1: EE2/NET alone, read-out: NET Cmax, Geometric LSMeans): 8.09 ng/mL | Cmax (female, human, plasma, Group B1 Period 1: EE2/NET alone, read-out: NET Cmax, Mean): 9.18 ng/mL | Cmax (female, human, plasma, Group B1 Period 1: EE2/NET alone, read-out: NET Cmax, Median): 8 ng/mL | Tmax (female, human, plasma, Group B1 Period 1: EE2/NET alone, read-out: NET Tmax, Median): 1 h | half-life (female, human, plasma, Group B1 Period 1: EE2/NET alone, read-out: NET t1/2, Mean (converted)): 9.6 h | half-life (female, human, plasma, Group B1 Period 1: EE2/NET alone, read-out: NET t1/2, Median (converted)): 8.71 h | AUC(0-t) (female, human, plasma, Group B1 Period 2: EE2/NET followed by SYM-1219 2 grams on Day 1, read-out: NET AUC0-t, Geometric LSMeans): 48.7 ng·h/mL | AUC(0-t) (female, human, plasma, Group B1 Period 2: EE2/NET followed by SYM-1219 2 grams on Day 1, read-out: NET AUC0-t, Mean): 53.5 ng·h/mL | AUC(0-t) (female, human, plasma, Group B1 Period 2: EE2/NET followed by SYM-1219 2 grams on Day 1, read-out: NET AUC0-t, Median): 48.9 ng·h/mL | AUC(0-inf) (female, human, plasma, Group B1 Period 2: EE2/NET followed by SYM-1219 2 grams on Day 1, read-out: NET AUC0-∞, Geometric LSMeans): 56.4 ng·h/mL | AUC(0-inf) (female, human, plasma, Group B1 Period 2: EE2/NET followed by SYM-1219 2 grams on Day 1, read-out: NET AUC0-∞, Mean): 62.4 ng·h/mL | AUC(0-inf) (female, human, plasma, Group B1 Period 2: EE2/NET followed by SYM-1219 2 grams on Day 1, read-out: NET AUC0-∞, Median): 54.3 ng·h/mL | Cmax (female, human, plasma, Group B1 Period 2: EE2/NET followed by SYM-1219 2 grams on Day 1, read-out: NET Cmax, Geometric LSMeans): 9.16 ng/mL | Cmax (female, human, plasma, Group B1 Period 2: EE2/NET followed by SYM-1219 2 grams on Day 1, read-out: NET Cmax, Mean): 10.1 ng/mL | Cmax (female, human, plasma, Group B1 Period 2: EE2/NET followed by SYM-1219 2 grams on Day 1, read-out: NET Cmax, Median): 9.45 ng/mL | half-life (female, human, plasma, Group B1 Period 2: EE2/NET followed by SYM-1219 2 grams on Day 1, read-out: NET t1/2, Mean (converted)): 9.6 h | half-life (female, human, plasma, Group B1 Period 2: EE2/NET followed by SYM-1219 2 grams on Day 1, read-out: NET t1/2, Median (converted)): 9.12 h | AUC(0-t) (female, human, plasma, Group B2 Period 1: EE2/NET alone, read-out: NET AUC0-t, Geometric LSMeans): 46.9 ng·h/mL | AUC(0-t) (female, human, plasma, Group B2 Period 1: EE2/NET alone, read-out: NET AUC0-t, Mean): 61.4 ng·h/mL | AUC(0-t) (female, human, plasma, Group B2 Period 1: EE2/NET alone, read-out: NET AUC0-t, Median): 41.7 ng·h/mL | AUC(0-inf) (female, human, plasma, Group B2 Period 1: EE2/NET alone, read-out: NET AUC0-∞, Geometric LSMeans): 55.1 ng·h/mL | AUC(0-inf) (female, human, plasma, Group B2 Period 1: EE2/NET alone, read-out: NET AUC0-∞, Mean): 75 ng·h/mL | AUC(0-inf) (female, human, plasma, Group B2 Period 1: EE2/NET alone, read-out: NET AUC0-∞, Median): 47.4 ng·h/mL | Cmax (female, human, plasma, Group B2 Period 1: EE2/NET alone, read-out: NET Cmax, Geometric LSMeans): 8.36 ng/mL | Cmax (female, human, plasma, Group B2 Period 1: EE2/NET alone, read-out: NET Cmax, Mean): 9.63 ng/mL | Cmax (female, human, plasma, Group B2 Period 1: EE2/NET alone, read-out: NET Cmax, Median): 8.16 ng/mL | half-life (female, human, plasma, Group B2 Period 1: EE2/NET alone, read-out: NET t1/2, Mean (converted)): 10 h | half-life (female, human, plasma, Group B2 Period 1: EE2/NET alone, read-out: NET t1/2, Median (converted)): 9.29 h | AUC(0-t) (female, human, plasma, Group B2 Period 2: SYM-1219 2 grams on Day 1, EE2/NET on Day 2, read-out: NET AUC0-t, Geometric LSMeans): 51.9 ng·h/mL | AUC(0-t) (female, human, plasma, Group B2 Period 2: SYM-1219 2 grams on Day 1, EE2/NET on Day 2, read-out: NET AUC0-t, Mean): 61.2 ng·h/mL | AUC(0-t) (female, human, plasma, Group B2 Period 2: SYM-1219 2 grams on Day 1, EE2/NET on Day 2, read-out: NET AUC0-t, Median): 44.5 ng·h/mL | AUC(0-inf) (female, human, plasma, Group B2 Period 2: SYM-1219 2 grams on Day 1, EE2/NET on Day 2, read-out: NET AUC0-∞, Geometric LSMeans): 60 ng·h/mL | AUC(0-inf) (female, human, plasma, Group B2 Period 2: SYM-1219 2 grams on Day 1, EE2/NET on Day 2, read-out: NET AUC0-∞, Mean): 71.5 ng·h/mL | AUC(0-inf) (female, human, plasma, Group B2 Period 2: SYM-1219 2 grams on Day 1, EE2/NET on Day 2, read-out: NET AUC0-∞, Median): 51.6 ng·h/mL | Cmax (female, human, plasma, Group B2 Period 2: SYM-1219 2 grams on Day 1, EE2/NET on Day 2, read-out: NET Cmax, Geometric LSMeans): 9.74 ng/mL | Cmax (female, human, plasma, Group B2 Period 2: SYM-1219 2 grams on Day 1, EE2/NET on Day 2, read-out: NET Cmax, Mean): 10.7 ng/mL | Cmax (female, human, plasma, Group B2 Period 2: SYM-1219 2 grams on Day 1, EE2/NET on Day 2, read-out: NET Cmax, Median): 9.39 ng/mL | half-life (female, human, plasma, Group B2 Period 2: SYM-1219 2 grams on Day 1, EE2/NET on Day 2, read-out: NET t1/2, Mean (converted)): 9.51 h | half-life (female, human, plasma, Group B2 Period 2: SYM-1219 2 grams on Day 1, EE2/NET on Day 2, read-out: NET t1/2, Median (converted)): 9.19 h
Structure (SMILES): C#C[C@]1(O)CC[C@H]2[C@@H]3CCC4=CC(=O)CC[C@@H]4[C@H]3CC[C@@]21C [NET, norethindrone]
